Values after ≈ are worked out from the molar mass of the structure shown.
Assay: solubility in water at 25° C.
Assay type: physicochemical

solubility [mg/mL] | solubility in water at 25° C. [mg/mL] | Structure (SMILES)
750 (≈ 6690 mM) |  | O=C1CCC(=O)CC1 [1,4-cyclohexanedione]
 | ≤ 0.5 | CCC1(CO)COC2(CCC3(CC2)OCC(CC)(CO)CO3)OC1 (stereo not shown) [compound A]
 | ≤ 0.5 | CC1(CO)COC2(CCC3(CC2)OCC(C)(CO)CO3)OC1 (stereo not shown) [compound B]
 | ≥ 100 | CC(CO)(CO)CO [trimethylolethane]

— patent US11261194B2, “Production method of diol” (MITSUBISHI GAS CHEMICAL COMPANY, INC., priority 2017, dated 2022)
